Results published in patent publication US8486916B2, “Medicine, food and drink or feed containing sphingomyelin” (Megmilk Snow Brand Co., Ltd., priority 2005, dated 2013).

Key:
[1] = test system: carrageenin-induced edema; experiment: Carrageenin-induced footpad edema method; assay type: in vivo, Wistar rats; settings: 100 mg/kg oral; 5 hours after λ-carrageenin injection
Procedure: The anti-inflammatory effect of sphingomyelin was tested by a carrageenin-induced footpad edema method. Specifically, a test subject shown in Table 15 was suspended in an aqueous solution containing 0.5% carboxymethylcellulose and orally administered (100 mg/kg) to male Wistar rats (body weight: 110 to 130 g, 8 individuals per group) according to the method of Winter et al. (Proceedings of the Society for Experimental Biology & Medicine, vol. 111, pp. 554, 1962). […] An aqueous solution containing 0.5% carboxymethylcellulose and no test substance was administered to rats in a control group. A rate of increase in footpad volume (V0) attributed to the injection of λ-carrageenin was measured in the control group in the same way as above. An carrageenin-induced edema inhibition rate (%) was calculated according to the calculation formula: (V0−V1)×100/V0 and used as the anti-inflammatory activity of the test substance. A higher value of this inhibition rate indicates higher anti-inflammatory activity.

[2] = test system: erythrocyte membrane ghost; experiment: Antioxidative activity: erythrocyte membrane ghost oxidation (TBA reaction); assay type: biochemical, rabbit
Procedure: The antioxidative activity of sphingomyelin was measured according to the method of Osawa et al. (J. Agric. Food Chem., vol. 35, pp. 809-812, 1987). Specifically, preserved rabbit blood was mixed with an equal amount of an isotonic solution (10 mM phosphate buffer/152 mM sodium chloride, pH 7.4), followed by centrifugation at 1,500×g (3,500 rpm) at 4° C. for 20 minutes. Blood corpuscles washed by repeating this procedure three times were mixed with an equal amount of a hypotonic solution (10 mM phosphate buffer, pH 7.4), followed by centrifugation at 20,000×g (11,000 rpm) at 4° C. for 40 minutes. Then, loose pellets (erythrocyte membrane ghost) obtained by repeating this procedure four times were used to examine antioxidative activity. […] An oxidation reaction was performed by the addition of an oxidizing agent. Subsequently, a TBA reaction was performed. Then, absorbance at 532 nm was measured to quantify an oxidation product.

[3] = test system: sialomucin content in the saliva; experiment: Effect of promoting sialomucin secretion: sialomucin content in rat saliva; assay type: in vivo, SD rats; settings: 7th day of experimental diet containing 1% of the substance
Procedure: Seven-week-old male SD rats (manufactured by Charles River Laboratories, Japan, Inc) were raised under conditions involving humidity of 60%, room temperature of 24° C., and light-dark (12 hour/12 hour) control. All the rats were preliminarily raised for 1 week with a standard diet and then divided into 3 groups each containing 12 individuals. These groups were allowed to freely take their respective experimental diets and raised for 1 week. Rat saliva was collected on the 7th day after the administration of experimental diets. A sialomucin content in the saliva was measured by high-performance liquid chromatography. […] In this context, a sialomucin content in the saliva was measured by the following method: 0.2 ml of a Nembutal solution was intramuscularly injected to rats fasted for 2 hours or longer. After anesthesia, a solution of pilocarpine hydrochloride serving as a saliva secretion promoter was intramuscularly injected thereto. […] A sialomucin content in the sialomucin fraction was quantified with a Sialic Acid Fluorescence Labeling Kit (Takara Bio Inc.). […] Free N-acetyl sialic acid or O-acetylated sialic acid was reacted at 55° C. for 2.5 hours by the addition of a DMB reagent as a fluorescence labeling agent and then quantified by high-performance liquid chromatography.

[4] = test system: β-Lg; experiment: Test on effect of blocking allergen invasion (β-Lg and anti-β-Lg IgE in blood); assay type: in vivo, Infant Wistar rats; settings: for Anti-β-Lg IgE: blood 2 weeks after β-Lg; for β-Lg: blood 1 hour after β-Lg
Procedure: Infant Wistar rats (14 day old, body weight: around 20 g, 8 individuals, Charles River Laboratories, Japan) were divided into a control group and sphingomyelin administration groups (SPM administration groups), and all the groups were raised using artificial milk having composition closely analogous to that of rat milk. […] On the 21st day, 100 μl of a β-Lg solution (10 mg/ml) was orally administered thereto. Blood collected from the rats after 1 hour and after 2 weeks. On the other hand, a β-Lg solution and a complete Freund adjuvant were mixed for emulsification, and the emulsion was hypodermically injected to 3 locations (both sides of the back, and the hip) of a 3-month-old rabbit (Japanese white, male, manufactured by KITAYAMA LABES Co., Ltd.) to obtain anti-β-Lg serum. A β-Lg amount in the above-described blood after 1 hour was measured by a sandwich ELISA method using this antiserum as a primary antibody and a horseradish peroxidase (PO)-labeled secondary antibody. Moreover, anti-β-Lg IgE in the above-described blood after 2 weeks was measured by an ELISA method using β-Lg and a PO-labeled anti-rat IgE antibody (manufactured by Nordic).

[5] = test system: pigmentation in the back skin of the guinea pigs; experiment: Anti-pigmentation effect by oral administration (ultraviolet-irradiated skin); assay type: in vivo, A-1 guinea pigs
Procedure: Sphingomyelin was tested for its anti-pigmentation effect by oral administration. The back of female A-1 guinea pigs (body weight: approximately 400 g) was shaved and irradiated with ultraviolet rays (UVA (max. 360 nm): 30.3 kJ/m^2, UVB (max. 312 nm): 4.8 kJ/m^2) once daily for 4 days. […] The oral administration to each group was performed once daily using a sonde, and the guinea pigs were raised for 4 weeks. The sphingomyelin raw material of Example 1 was suspended in 10 g of a saline, and this suspension was orally administered to each of the groups B to D. Influence on pigmentation in the back skin of the guinea pigs in each group was measured with a colorimeter (CHROMA METER CR-200) manufactured by MINOLTA at the start of sample administration and at the completion of sample administration. A lightness recovery rate from the start of sample administration was calculated.

Substance: sphingomyelin
- Inhibition rate [1]: 40.2%
- absorbance at 532 nm (oxidation product) with respect to absence of added sphingomyelin defined as 100% ([2]; sample concentration 0.01 mM, lower = higher antioxidative activity): 98%
- absorbance at 532 nm (oxidation product) with respect to absence of added sphingomyelin defined as 100% ([2]; sample concentration 0.1 mM): 95%
- absorbance at 532 nm (oxidation product) with respect to absence of added sphingomyelin defined as 100% ([2]; sample concentration 1 mM): 80%
- absorbance at 532 nm (oxidation product) with respect to absence of added sphingomyelin defined as 100% ([2]; sample concentration 10 mM): 61%
- Sialomucin content [3]: 25.2 ± 2.9 µg/µL
- Anti-β-Lg IgE ([4]; 0.05 mg/kg/day oral): 498.2 ± 156.8 ng/mL
- β-Lg ([4]; 0.05 mg/kg/day oral): 38.6 ± 14.7 ng/mL
- Anti-β-Lg IgE ([4]; 0.1 mg/kg/day oral): 190.6 ± 77.8 ng/mL
- β-Lg ([4]; 0.1 mg/kg/day oral): 13.4 ± 6.6 ng/mL
- Anti-β-Lg IgE ([4]; 5.0 mg/kg/day oral): 165.4 ± 65.9 ng/mL
- β-Lg ([4]; 5.0 mg/kg/day oral): 5.6 ± 3.8 ng/mL
- Lightness recovery rate ([5]; 2 mg/kg oral once daily for 4 weeks (group B), group A 31): 48%
- Lightness recovery rate ([5]; 5 mg/kg oral once daily for 4 weeks (group C)): 62%
- Lightness recovery rate ([5]; 10 mg/kg oral once daily for 4 weeks (group D)): 78%
- lightness recovery rate relative to that in the group A ([5]; groups B to D versus saline group A, 4-week oral administration): up to 2.5 times
